From patent publication US7700577B2, “Carbohydrate based anti-bacterials” (Alchemia Limited, priority 2002, dated 2010)

Tests used:
[1] = tested on: Streptococcus pyrogenes (ATCC8668); test: MIC testing, additional organisms: Streptococcus pyrogenes; assay type: cell-based; settings: broth supplemented with 2% laked horse blood
From the text: (§1) The broth microdilution format of the National Committee for Clinical Laboratory Standards (NCCLS) approved standard for susceptibility tests as outlined in M7-A4 “methods for dillution Antimicrobial susceptibility tests for bacteria that grow aerobically; approved standard—fifth edition”, January 2000 was utilized for minimum inhibitory concentration testing in Mueller-Hinton broth. The broth for Streptococcus pyogenes testing was supplemented with 2% laked horse blood. A positive result in initial testing was determined by complete inhibition of macroscopic bacterial growth at a concentration of 128 micrograms per mL after incubation for 16 to 24 hours at 37 degrees C. In the case of Micrococcus luteus, incubation was at 30 degrees C.
(§2) Bacterial Types Are: • SA24 S. aureus after 24 hours exposure • SA48 S. aureus after 48 hours exposure • EC24 E. coli after 24 hours exposure
(§3) The following compounds were tested against additional organisims with the following results. • 1. Micrococcus luteus (ATCC272) • 2. Staphylococcus aureus (ATCC29213) • 3. Staphylococcus aureus (ATCC43300) MRSA • 4. Enterococcus faecalis (ATCC29212) • 5. Enterococcus faecalis (ATCCS 1299) Vancomycin resistant • 6. Streptococcus pyrogenes (ATCC8668)

[2] = tested on: Enterococcus faecalis (ATCCS 1299) Vancomycin resistant; test: MIC testing, additional organisms: Enterococcus faecalis vancomycin resistant; assay type: cell-based
From the text: as §1, §2, §3

[3] = tested on: Enterococcus faecalis (ATCC29212); test: MIC testing, additional organisms: Enterococcus faecalis ATCC29212; assay type: cell-based
From the text: as §1, §2, §3

S. aureus = test: MIC testing, broth microdilution (NCCLS), S. aureus; assay type: cell-based, Staphylococcus aureus; settings: for SA24 (MIC): S. aureus after 24 hours exposure; for SA48 (MIC): S. aureus after 48 hours exposure
From the text: (§4) The broth microdilution format of the National Committee for Clinical Laboratory Standards (NCCLS) approved standard for susceptibility tests as outlined in M7-A4 “methods for dillution Antimicrobial susceptibility tests for bacteria that grow aerobically; approved standard—fifth edition”, January 2000 was utilized for minimum inhibitory concentration testing in Mueller-Hinton broth. The broth for Streptococcus pyogenes testing was supplemented with 2% laked horse blood. A positive result in initial testing was determined by complete inhibition of macroscopic bacterial growth at a concentration of 128 micrograms per mL after incubation for 16 to 24 hours at 37 degrees C. In the case of Micrococcus luteus, incubation was at 30 degrees C. […] Bacterial Types Are: • SA24 S. aureus after 24 hours exposure • SA48 S. aureus after 48 hours exposure • EC24 E. coli after 24 hours exposure

[4] = tested on: Staphylococcus aureus (ATCC29213); test: MIC testing, additional organisms: Staphylococcus aureus ATCC29213; assay type: cell-based
From the text: as §1, §2, §3

[5] = tested on: Staphylococcus aureus (ATCC43300) MRSA; test: MIC testing, additional organisms: Staphylococcus aureus MRSA; assay type: cell-based
From the text: as §1, §2, §3

[6] = tested on: Micrococcus luteus (ATCC272); test: MIC testing, additional organisms: Micrococcus luteus; assay type: cell-based; settings: incubation at 30 degrees C
From the text: as §1, §2, §3

E. coli = test: MIC testing, broth microdilution (NCCLS), E. coli; assay type: cell-based; settings: E. coli after 24 hours exposure
From the text: as §4

SMILES	MIC, organism 6 [1]	MIC, organism 5 [2]	MIC, organism 4 [3]	SA24 (MIC) (S. aureus)	SA48 (MIC) (S. aureus)	MIC, organism 2 [4]	MIC, organism 3 [5]	MIC, organism 1 [6]	EC24 (MIC) (E. coli)
CCCCCCCCCCN[C@H]1C(CO)OCC(NC(=O)Nc2cccc(C(F)(F)F)c2)[C@H]1O[C@@H]1OC(CO)[C@@H](O)[C@H](O)C1NC(=O)Nc1cccc(C(F)(F)F)c1 (stereo partly drawn) [compound 56]	+ (+ indicates an MIC value of less than 128 micrograms per mL)	+ (+ indicates an MIC value of less than 128 micrograms per mL)	+ (+ indicates an MIC value of less than 128 micrograms per mL)	+ (+ indicates an MIC value of less than 128 micrograms per mL)	+ (+ indicates an MIC value of less than 128 micrograms per mL)	+ (+ indicates an MIC value of less than 128 micrograms per mL)	+ (+ indicates an MIC value of less than 128 micrograms per mL)	+ (+ indicates an MIC value of less than 128 micrograms per mL)	–
CCCCCCCC(=O)Nc1ccc(C(=O)NC2C(CO)OCC(NC(=O)Nc3cccc(C(F)(F)F)c3)C2OC2OC(CO)C(O)C(O)C2NC(=O)Nc2cccc(C(F)(F)F)c2)cc1 (stereo not drawn) [compound 65]	+ (+ indicates an MIC value of less than 128 micrograms per mL)	− (− indicates an MIC of greater then 128 micrograms per mL)	+ (+ indicates an MIC value of less than 128 micrograms per mL)	+ (+ indicates an MIC value of less than 128 micrograms per mL)	+ (+ indicates an MIC value of less than 128 micrograms per mL)	− (− indicates an MIC of greater then 128 micrograms per mL)	− (− indicates an MIC of greater then 128 micrograms per mL)	+ (+ indicates an MIC value of less than 128 micrograms per mL)	–
CCCCCCCCCCS(=O)(=O)NC1C(CO)OCC(NC(=O)Nc2cccc(C(F)(F)F)c2)C1OC1OC(CO)C(O)C(O)C1NC(=O)Nc1cccc(C(F)(F)F)c1 (stereo not drawn) [compound 69]	+ (+ indicates an MIC value of less than 128 micrograms per mL)	− (− indicates an MIC of greater then 128 micrograms per mL)	+ (+ indicates an MIC value of less than 128 micrograms per mL)	+ (+ indicates an MIC value of less than 128 micrograms per mL)	–	+ (+ indicates an MIC value of less than 128 micrograms per mL)	+ (+ indicates an MIC value of less than 128 micrograms per mL)	+ (+ indicates an MIC value of less than 128 micrograms per mL)	–
CCCCCC(=O)NC1C(CO)OCC(NC(=O)Nc2cccc(C(F)(F)F)c2)C1OC1OC(CO)C(O)C(O)C1NC(=O)Nc1cccc(C(F)(F)F)c1 (stereo not drawn) [compound 70]	+ (+ indicates an MIC value of less than 128 micrograms per mL)	− (− indicates an MIC of greater then 128 micrograms per mL)	+ (+ indicates an MIC value of less than 128 micrograms per mL)	− (− indicates an MIC of greater then 128 micrograms per mL)	–	− (− indicates an MIC of greater then 128 micrograms per mL)	− (− indicates an MIC of greater then 128 micrograms per mL)	+ (+ indicates an MIC value of less than 128 micrograms per mL)	–
O=C(Nc1cccc(C(F)(F)F)c1)NC1COC(CO)C(NC(=O)c2ccc(Oc3ccccc3)cc2)C1OC1OC(CO)C(O)C(O)C1NC(=O)Nc1cccc(C(F)(F)F)c1 (stereo not drawn) [compound 73]	+ (+ indicates an MIC value of less than 128 micrograms per mL)	+ (+ indicates an MIC value of less than 128 micrograms per mL)	+ (+ indicates an MIC value of less than 128 micrograms per mL)	+ (+ indicates an MIC value of less than 128 micrograms per mL)	–	+ (+ indicates an MIC value of less than 128 micrograms per mL)	+ (+ indicates an MIC value of less than 128 micrograms per mL)	+ (+ indicates an MIC value of less than 128 micrograms per mL)	–
O=C(Nc1cccc(C(F)(F)F)c1)NC1COC(CO)C(NC(=O)c2ccc(-c3ccccc3)cc2)C1OC1OC(CO)C(O)C(O)C1NC(=O)Nc1cccc(C(F)(F)F)c1 (stereo not drawn) [compound 74]	+ (+ indicates an MIC value of less than 128 micrograms per mL)	+ (+ indicates an MIC value of less than 128 micrograms per mL)	+ (+ indicates an MIC value of less than 128 micrograms per mL)	+ (+ indicates an MIC value of less than 128 micrograms per mL)	–	+ (+ indicates an MIC value of less than 128 micrograms per mL)	+ (+ indicates an MIC value of less than 128 micrograms per mL)	+ (+ indicates an MIC value of less than 128 micrograms per mL)	–
CCCCCCCCCCCCC(=O)NC1C(CO)OCC(NC(=O)Nc2cccc(C(F)(F)F)c2)C1OC1OC(CO)C(O)C(O)C1NC(=O)Nc1cccc(C(F)(F)F)c1 (stereo not drawn) [compound 76]	+ (+ indicates an MIC value of less than 128 micrograms per mL)	+ (+ indicates an MIC value of less than 128 micrograms per mL)	+ (+ indicates an MIC value of less than 128 micrograms per mL)	+ (+ indicates an MIC value of less than 128 micrograms per mL)	–	+ (+ indicates an MIC value of less than 128 micrograms per mL)	+ (+ indicates an MIC value of less than 128 micrograms per mL)	+ (+ indicates an MIC value of less than 128 micrograms per mL)	–
CCCCCCCCCCC(=O)NC1C(CO)OCC(NC(=O)Nc2cccc(C(F)(F)F)c2)C1OC1OC(CO)C(O)C(O)C1NC(=O)Nc1cccc(C(F)(F)F)c1 (stereo not drawn) [compound 77]	+ (+ indicates an MIC value of less than 128 micrograms per mL)	+ (+ indicates an MIC value of less than 128 micrograms per mL)	+ (+ indicates an MIC value of less than 128 micrograms per mL)	+ (+ indicates an MIC value of less than 128 micrograms per mL)	+ (+ indicates an MIC value of less than 128 micrograms per mL)	+ (+ indicates an MIC value of less than 128 micrograms per mL)	+ (+ indicates an MIC value of less than 128 micrograms per mL)	+ (+ indicates an MIC value of less than 128 micrograms per mL)	− (− indicates an MIC of greater then 128 micrograms per mL)
